# Experimental data taken from publication PMC10432564, “Pharmacological perturbation of the phase-separating protein SMNDC1” (Nature Communications, 2023).
# pIC50: −log10 of the molar value.
# Assays:
# αTC1 cells [1] = test: Alternative splicing, RNA sequencing (VAST-TOOLS) and RT-PCR; assay type: cell-based, mouse
# Protocol: To perform splicing PCRs, RNA was isolated from pelleted cells using the RNeasy Mini Kit (Qiagen, #74106).
# RNA sequencing libraries were prepared from low-input samples using the Smart-seq2 protocol. The subsequent library preparation from the amplified cDNA was performed using the Nextera XT DNA library prep kit (Illumina, San Diego, CA, USA). Library concentrations were quantified with the Qubit 2.0 Fluorometric Quantitation system (Life Technologies, Carlsbad, CA, USA) and the size distribution was assessed using the Experion Automated Electrophoresis System (Bio-Rad, Hercules, CA, USA). For sequencing, samples were diluted and pooled into NGS libraries in equimolar amounts.
# Alternative splicing events were characterized and quantified using VAST-TOOLS[54] (2.5.1) in conjunction with the Mus musculus database (vastdb.mm2.23.06.20), based on the Genome Reference Consortium assembly GRCm38.p5 and Ensembl transcript annotation 88 (March 2017). Briefly, NGS reads were aligned for each read group independently, read groups were merged into samples and samples were combined into a summary table. […]
# αTC1 cells [2] = test: Cell death, AnnexinV and Propidium Iodide staining
# Source text: PI+ cells (αTC1), treated with DMSO or compound 1 . Data shown as mean + standard
# SMN Tudor domain = SMN Tudor domain (Homo sapiens, UniProt Q16637); test: AlphaScreen, SMN Tudor domain / sDMA-peptide interaction
# Sequence of SMN Tudor domain (Q16637 84-147): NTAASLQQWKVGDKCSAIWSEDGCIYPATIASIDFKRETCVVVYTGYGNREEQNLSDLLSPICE
# Protocol: To establish an AlphaScreen[50], we coupled donor beads to purified SMNDC1’s (or SMN’s) Tudor domain via a His-Tag and acceptor beads to a biotinylated peptide corresponding to the C-terminal region of the Small nuclear ribonucleoprotein Sm D3 containing four sDMAs (Fig. 4a). […] To identify ideal concentrations for screening, we performed a cross-titration of Tudor domains and binding peptides (Supplementary Fig. 3b).
# The AlphaScreen was conducted in 20 mM sodium phosphate pH 6.5, 50 mM NaCl, Tween 0.01%, BSA 0.1%. Protein concentration was optimized for each batch of purified protein. Optimal concentration was chosen at the lowest concentration with ~80% of maximum signal. […] In the first step, 10 µl of the protein solution containing either SMNDC1’s or SMN’s Tudor domain coupled to a 6xHis-Tag were distributed to 384-well plates pre-spotted with compounds and controls, shaken and incubated for 30 min at RT. Afterwards, 10 µl of peptide solution was added to each well and incubated for 1 h at RT. Finally, 5 µl of a solution containing both Streptavidin Donor and nickel chelate (Ni-NTA) Acceptor beads was added and again incubated for 1 h at RT.
# APEX2-SMNDC1^FL = target: T1, APEX2-SMNDC1^FL (Homo sapiens, UniProt O75940); test: APEX2-SMNDC1^FL proximity labeling, biotin enrichment and mass spectrometry; assay type: cell-based, mouse; conditions: compound-treated over DMSO; adjusted p-value<0.05, |log2FC|≥2
# T1 construct: In addition to full-length SMNDC1 (APEX2-SMNDC1^FL); expressed in transfected cells
# T1 sequence (O75940 1-238): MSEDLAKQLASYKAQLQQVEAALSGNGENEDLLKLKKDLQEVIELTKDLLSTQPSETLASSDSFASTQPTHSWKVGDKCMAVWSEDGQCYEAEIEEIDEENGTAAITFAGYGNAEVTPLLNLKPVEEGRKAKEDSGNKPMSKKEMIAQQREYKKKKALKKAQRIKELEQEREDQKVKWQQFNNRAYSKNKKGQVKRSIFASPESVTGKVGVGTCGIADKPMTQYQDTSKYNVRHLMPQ
# Source text: (§1) Proximity labeling with APEX2 was done following the described protocol for imaging and proteomic analysis. Cell lines with a stable expression of APEX2-fusion proteins were generated using lentiviral transduction of plasmids generated with Gateway cloning of the respective fusion protein into pLEX305. pLEX_305 was a gift from David Root (Addgene plasmid # 41390; http://n2t.net/addgene:41390; RRID:Addgene_41390). The APEX2 sequence was amplified from APEX2-csGBP which was a gift from Rob Parton (Addgene plasmid # 108874; http://n2t.net/addgene:108874; RRID:Addgene_108874). Briefly, cells were incubated with 0.5 mM biotin-phenol for 30 min, after which 1 mM H2O2 was added for exactly 1 min. Afterwards the labeling reaction was quenched by 3 quick washes with Quenching solution (10 mM sodium ascorbate, 10 mM sodium azide, 5 mM Trolox in PBS). […]
# (§2) After proximity labeling, cells (~10 Mio. cells, 15 cm dish) were harvested, washed 2x in PBS, snap frozen and stored at −80 °C. […] After quantification of protein amounts by Pierce™ 660 nm Protein Assay, samples were normalized to 500 µg total protein input in a final volume of 300 µl lysis buffer. […]
# (§3) Following data acquisition, acquired raw data files were processed using the Proteome Discoverer v.2.4.1.15 platform, choosing a TMT16plex quantification method. […]
# APEX2-SMNDC1^TD = target: T2, APEX2-SMNDC1^TD (Homo sapiens, UniProt O75940); test: APEX2-SMNDC1^TD proximity labeling, biotin enrichment and mass spectrometry; assay type: cell-based, mouse; conditions: compound-treated over DMSO; adjusted p-value<0.05, |log2FC|≥2
# T2 construct: a truncated SMNDC1 consisting of only the Tudor domain and therefore lacking N-terminal and C-terminal regions; expressed in transfected cells
# T2 sequence (O75940 72-132 limits assumed): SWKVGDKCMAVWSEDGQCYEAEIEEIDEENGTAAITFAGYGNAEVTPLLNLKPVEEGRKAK
# Source text: as §1, §2, §3
compound,measurement,setting,value
CN(C)S(=O)(=O)c1ccc(C(=O)Nc2nc(-c3ccccn3)cs2)cc1 [compound 1],"alternatively spliced isoforms by RT-PCR, long-term low-dose treatment",αTC1 cells [1]; 2 µM over 5 days,could also see the effect
same,alternative splicing events,"αTC1 cells [1]; paired-end RNA sequencing, compound over DMSO",increased retention of introns and skipping of exons
same,percentage of AnnexinV and Propidium Iodide (PI) positive cells,αTC1 cells [2]; 16 h after start of treatment,elevated
same,outcome of longer treatment,αTC1 cells [2]; longer than 12–16 h at 50 µM,cell death
same,AnnexinV or PI staining relative to DMSO,αTC1 cells [2]; reviewer's reading of the plot (Supplementary Fig. 5),2-3 times
same,pIC50,SMN Tudor domain,6.06
same,proteins significantly depleted,APEX2-SMNDC1^FL,126 proteins
same,proteins significantly enriched,APEX2-SMNDC1^FL,6 proteins
same,proteins significantly depleted,APEX2-SMNDC1^TD,0 proteins
same,proteins significantly enriched,APEX2-SMNDC1^TD,5 proteins
